Data published in patent publication US11964984B2, “TXNIP-TRX complex inhibitors and methods of using the same” (CITY OF HOPE, priority 2020, dated 2024).

Tests used:
SOD1 mRNA = SOD1 mRNA in primary human pancreatic islets under 25 mM glucose (RT-PCR); assay type: cell-based; conditions: human pancreatic islets (500 IEQ), 2.5 uM, 48 h
Protocol: (§1) FIGS. 12A-12B. […] Human pancreatic islets (500 IEQ) were cultured with PIM(R) (Prodo Labs) medium under 25 mM glucose with 2.5 uM of the indicated compounds for 48 h. Total RNA was collected. RT-PCR was performed in triplicate and data shown are the mean±SEM. Statistical analysis was performed using one-way ANOVA: *p<0.0001. […] Human pancreatic islets (500 IEQ) were cultured with PIM(R) (Prodo Labs) under 25 mM glucose with 2.5 uM of the indicated compounds for 48 h. Total RNA was collected. RT-PCR was performed in triplicate and data shown are the mean+SEM. Statistical analysis was performed using one-way ANOVA: *p<0.0001.
(§2) Testing lead compounds in human pancreatic islets. To further explore the effects of the lead compounds as possible therapies in diabetes, we conducted translational studies in primary human pancreatic islets (obtained from the City of Hope islet isolation center).
(§3) RNA extraction and quantitative RT-PCR. RNA was extracted using the Direct-zol™ RNA MiniPrep Plus (Zymo Research). […] Diluted cDNA was quantified using real-time PCR performed with Power SYBR Green qPCR MasterMix (Applied Biosystem) and 7500 real-time PCR system (Applied Biosystems). […]

TXNIP mRNA = TXNIP mRNA in primary human pancreatic islets under 25 mM glucose (RT-PCR); assay type: cell-based; conditions: human pancreatic islets (500 IEQ), 2.5 uM, 48 h
Protocol: as §1, §2, §3

TXNIP = target: T1, TXNIP (Homo sapiens, UniProt Q9H3M7); assay: Drug affinity responsive target stability (DARTS) assay, THP1 cell extracts; assay type: binding; conditions: THP-1 cell extracts, protease, aliquots at 7 minutes
T1 construct: THP1 cells were lysed with extract buffer; endogenous in cells; host or cells: THP1 cells cultured in RPMI 1640 under 25 mM glucose for 72 hours; cell extracts
T1 sequence (Q9H3M7 1-391): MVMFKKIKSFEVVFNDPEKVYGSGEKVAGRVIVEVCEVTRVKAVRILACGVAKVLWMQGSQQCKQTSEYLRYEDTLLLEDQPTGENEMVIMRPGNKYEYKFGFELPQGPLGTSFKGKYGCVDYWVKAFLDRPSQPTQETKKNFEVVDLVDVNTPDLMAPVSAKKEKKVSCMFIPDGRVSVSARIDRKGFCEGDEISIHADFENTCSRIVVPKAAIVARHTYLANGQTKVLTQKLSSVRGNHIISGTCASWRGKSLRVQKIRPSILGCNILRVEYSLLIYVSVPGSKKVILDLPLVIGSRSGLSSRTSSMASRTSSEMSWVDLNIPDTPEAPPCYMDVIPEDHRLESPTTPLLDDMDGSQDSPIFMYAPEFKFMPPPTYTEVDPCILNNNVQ
Protocol: FIG. 9. Treatment with C30 and C38 protects TXNIP from proteolysis in a DARTS assay. THP1 cell were cultured in RPMI 1640 medium under 25 mM glucose for 72 hours. Cell extracts were prepared. C30 and C38 were added at the indicated concentrations and protease was added except control lanes. Aliquots were withdrawn at 7 minutes and loaded on 10% SDS gels. Control: without protease.
Experimental testing of small molecules: We developed several different bench-based assays to perform rigorous and reproducible tests for the predicted hit molecules. These assays include testing direct binding to TXNIP as well as functional assays including under diabetic high glucose conditions. The assays are: (1) drug affinity responsive target stability test that tests the direct binding of the compounds. In this assay, when a compound binds to its target molecule, it can reduce the rate of its proteolytic digestion. (2) This assay looks for compounds that can interfere with the interaction between TXNIP and TRX in THP-1 monocytes treated with high glucose. TXNIP is highly expressed in cells treated with high glucose, and therefore would have high concentration of TXNIP/TRX complexes in the cell extract. Co-immunoprecipitation was done in these extracts through adding TRX antibody, and then the effects of compounds added were tested. […]

concentration from which TXNIP is protected from proteolysis (TXNIP) [µM] | Compound | SOD1 mRNA levels (SOD1 mRNA) | TXNIP mRNA (TXNIP mRNA)
~0.5 | COc1cc(N2CC[C@@H](c3ccc4ccccc4c3)[C@H](O)C2)nc(N)n1 [Compound C30] | does not alter SOD1 mRNA levels | target TXNIP mRNA
~0.5 | c1ccc(CCNc2ncnc3c2oc2ccccc23)cc1 [Compound C38] | does not alter SOD1 mRNA levels | target TXNIP mRNA
